Patent US20240390369A1, “METHODS FOR DETERMINING RESPONSIVENESS TO TYK2 INHIBITORS” (Bristol-Myers Squibb Company, priority 2021, published 2024)

Legend:
β-defensin 2 (BD2) = assay: Serum β-defensin 2 level over sixteen weeks of treatment (ELISA); type: in vivo, human; conditions: 12 mg QD treatment arm; sixteen-week treatment period (FIG. 43B)
Experimental: Levels of proteins in serum were measured at baseline and at various points during sixteen weeks of treatment with deucravacitinib. […] Levels of BD2 in serum samples were measured by ELISA; levels of IL-19 and IL-17A in serum were each measured by ultrasensitive Simoa technology.

[1] = test system: patients with psoriatic arthritis; assay: Phase 2 trial in psoriatic arthritis: ACR20 response at week 16; type: in vivo, human

## [2H]C([2H])([2H])NC(=O)c1nnc(NC(=O)C2CC2)cc1Nc1cccc(-c2ncn(C)n2)c1OC [deucravacitinib, 6-(cyclopropanecarboxamido)-4-((2-methoxy-3-(1-methyl-1H-1,2,4-triazol-3-yl)phenyl)amino)-N-(methyl-d3)pyridazine-3-carboxamide]
β-defensin 2 (BD2)
  Change from baseline in serum BD2 level, PASI75 responders versus non-responders: greater reductions in BD2 serum level were observed over time in the PASI75 responder group compared with the non-responder group
[1]; adjusted for baseline DAS28, 12 mg QD vs placebo: IL-19-high versus IL-19-low
  Interaction Term for ACR20 response (ratio of odds ratios): 7.37
[1]; adjusted for baseline DAS28, All patients, 6 mg QD vs placebo
  Odds Ratio for ACR20 response: 2.44
[1]; adjusted for baseline DAS28, BD2-high, 12 mg QD vs placebo
  Odds Ratio for ACR20 response: 7.33
[1]; adjusted for baseline DAS28, IL-17A-low, 12 mg QD vs placebo
  Odds Ratio for ACR20 response: 2.16
